Source: patent publication US4746736A, “Carbapenem antibiotics” (priority 1986, dated 1988)
In brackets after ≈: the same amount, converted by molar mass. Where two headings read alike, the source gives them in different places.

What was measured:
Format in all cases: cell-based
[1] = test system: S. aureus A15097 (Meth-res.); experiment: In vitro MIC by tube dilution, S. aureus A15097 (Meth-res.); details: Staphylococcus aureus
E. cloacae A-9656 = experiment: In vitro MIC by tube dilution, E. cloacae A-9656; details: Enterobacter cloacae, A9656, E. cloacae A-9656; read-out: MIC
E. coli A15119 = experiment: In vitro MIC by tube dilution, E. coli A15119; details: Escherichia coli, read-out: MIC
P. morganii A15153 = experiment: In vitro MIC by tube dilution, P. morganii (M. morganii) A15153; details: Morganella morganii, read-out: MIC
[2] = test system: S. aureus A-9606 (Pen-res.); experiment: In vitro MIC by tube dilution, S. aureus A-9606 (Pen-res.); details: Staphylococcus aureus, read-out: MIC
S. aureus A-9537 = experiment: In vitro MIC by tube dilution, S. aureus A-9537; details: Staphylococcus aureus, read-out: MIC
P. aeruginosa A-9843A = experiment: In vitro MIC by tube dilution, P. aeruginosa A-9843A; details: Pseudomonas aeruginosa, A9843A, read-out: MIC
S. marcescens A20019 = experiment: In vitro MIC by tube dilution, S. marcescens A20019; details: Serratia marcescens, read-out: MIC
K. pneumoniae A20468 = experiment: In vitro MIC by tube dilution, K. pneumoniae A20468; details: Klebsiella pneumoniae, read-out: MIC
E. cloacae A-9659 = experiment: In vitro MIC by tube dilution, E. cloacae A-9659; details: Enterobacter cloacae, read-out: MIC
S. pneumoniae A-9585 = experiment: In vitro MIC by tube dilution, S. pneumoniae A-9585; details: Streptococcus pneumoniae, A9585, S. pneumoniae A-9585; read-out: MIC
P. mirabilis A-9900 = experiment: In vitro MIC by tube dilution, P. mirabilis A-9900; details: Proteus mirabilis, A9900, P. mirabilis A-9900; read-out: MIC
P. rettgeri A22424 = experiment: In vitro MIC by tube dilution, P. rettgeri A22424; details: Providencia rettgeri, read-out: MIC
K. pneumoniae A-9664 = experiment: In vitro MIC by tube dilution, K. pneumoniae A-9664; details: Klebsiella pneumoniae, A9664, read-out: MIC
S. pyogenes A9604 = experiment: In vitro MIC by tube dilution, S. pyogenes A9604; details: Streptococcus pyogenes, A9604, S. pyogenes A-9604; read-out: MIC
E. coli A20341-1 = experiment: In vitro MIC by tube dilution, E. coli A20341-1; details: Escherichia coli, A203411, read-out: MIC
P. aeruginosa A21213 = experiment: In vitro MIC by tube dilution, P. aeruginosa A21213; details: Pseudomonas aeruginosa, read-out: MIC
S. faecalis A20688 = experiment: In vitro MIC by tube dilution, S. faecalis A20688; details: Enterococcus faecalis, A20688, S. faecalis A20688; read-out: MIC
[3] = A9537, S. aureus A-9537 +50% serum
[4] = A9537, S. aureus A-9537, no serum

Row | SMILES | MIC (E. cloacae A-9656) [µg/mL] | MIC (E. coli A15119; A15119, E. coli A15119) [µg/mL] | MIC (P. morganii A15153; A15153, M. morganii A15153) [µg/mL] | MIC ([2]; S. aureus A-9606 (Pen-res)) [µg/mL] | MIC (S. aureus A-9537; [3]) [µg/mL] | MIC (S. aureus A-9537; [4]) [µg/mL] | MIC (P. aeruginosa A-9843A; P. aeruginosa A-9843a) [µg/mL] | MIC (S. marcescens A20019) [µg/mL] | MIC (K. pneumoniae A20468; A20468, K. pneumoniae A20468) [µg/mL] | MIC (E. cloacae A-9659; A9659, E. cloacae A-9659) [µg/mL] | MIC (S. pneumoniae A-9585) [µg/mL] | MIC (P. mirabilis A-9900) [µg/mL] | MIC (P. rettgeri A22424; A22424, P. rettgeri A22424) [µg/mL] | MIC (K. pneumoniae A-9664) [µg/mL] | MIC (S. pyogenes A9604) [µg/mL] | MIC (E. coli A20341-1) [µg/mL] | MIC (E. coli A15119; E. coli A15119) [µg/mL] | MIC (P. morganii A15153; M. morganii A15153) [µg/mL] | MIC (K. pneumoniae A20468; K. pneumoniae A20468) [µg/mL] | MIC (S. faecalis A20688) [µg/mL] | also measured
1 | C[C@@H](O)[C@H]1C(=O)N2C(C(=O)[O-])=C(SCCc3cccc[n+]3C)C[C@H]12 [Example 5, 3-(N-Methylpyridine-2-yl-ethanethio]-6α-[1-(R)-hydroxyethyl]-7-oxo-1-azabicyclo(3.2.0)hept-2-ene-2-carboxylate] | 0.13 (≈ 0.373 µM) | 0.016 (≈ 0.0459 µM) | 0.06 (≈ 0.172 µM) | 0.008 (≈ 0.023 µM) | 0.016 (≈ 0.0459 µM) | 0.004 (≈ 0.0115 µM) | 4 (≈ 11.5 µM) | 0.06 (≈ 0.172 µM) | 0.06 (≈ 0.172 µM) | 0.06 (≈ 0.172 µM) | 0.004 (≈ 0.0115 µM) | 0.03 (≈ 0.0861 µM) | 0.13 (≈ 0.373 µM) | 0.03 (≈ 0.0861 µM) | 0.004 (≈ 0.0115 µM) | 0.016 (≈ 0.0459 µM) |  |  |  |  | MIC ([1]; S. aureus A15097 (Meth-res)): 8 µg/mL (≈ 23 µM)
2 | C[C@@H](O)[C@H]1C(=O)N2C(C(=O)[O-])=C(SCc3cn(C)n[n+]3C)C[C@H]12 [Example 15 "A", 3-[4-(N,N-dimethyl-1,2,3-triazolium)methylthio]-6α-[1-(R)-hydroxyethyl]-7-oxo-1-azabicyclo(3.2.0)hept-2-ene-2-carboxylate] | 0.016 (≈ 0.0473 µM) |  |  | 0.004 (≈ 0.0118 µM) | 0.03 (≈ 0.0887 µM) | 0.03 (≈ 0.0887 µM) | 0.5 (≈ 1.48 µM) | 0.008 (≈ 0.0236 µM) |  | 0.016 (≈ 0.0473 µM) |  | 0.008 (≈ 0.0236 µM) |  | 0.008 (≈ 0.0236 µM) |  | 0.004 (≈ 0.0118 µM) | 0.004 (≈ 0.0118 µM) | 0.03 (≈ 0.0887 µM) | 0.008 (≈ 0.0236 µM) | 0.13 (≈ 0.384 µM) | MIC (P. rettgeri A22424; P. rettgeri A22424): 0.03 µg/mL (≈ 0.0887 µM); MIC (P. aeruginosa A21213; P. aeruginosa A21213): 0.03 µg/mL (≈ 0.0887 µM)
3 | C[C@@H](O)[C@H]1C(=O)N2C(C(=O)[O-])=C(SCc3n(C)cc[n+]3C)C[C@H]12 [Example 9, 3-(N,N'-Dimethylimidazole-2-yl-methanethio)-6α-[1-(R)-hydroxyethyl]-7-oxo-1-azabicyclo(3.2.0)hept-2-ene-2-carboxylate] | 0.03 (≈ 0.0889 µM) |  |  |  |  | 0.004 (≈ 0.0119 µM) | 2 (≈ 5.93 µM) | 0.016 (≈ 0.0474 µM) |  | 0.03 (≈ 0.0889 µM) |  | 0.016 (≈ 0.0474 µM) | 0.06 (≈ 0.178 µM) | 0.016 (≈ 0.0474 µM) |  | 0.004 (≈ 0.0119 µM) | 0.008 (≈ 0.0237 µM) | 0.03 (≈ 0.0889 µM) | 0.03 (≈ 0.0889 µM) | 0.13 (≈ 0.385 µM) | MIC (P. aeruginosa A21213; A21213, P. aeruginosa A21213): 0.13 µg/mL (≈ 0.385 µM)
4 | C[C@@H](O)[C@H]1C(=O)N2C(C(=O)[O-])=C(SCc3scc[n+]3C)C[C@H]12 [Example 11, 3-[2-(N-Methylthiazolium)methylthio]-6α-[1-(R)-hydroxyethyl]-7-oxo-1-azabicyclo(3.2.0)hept-2-ene-2-carboxylate] | 0.13 (≈ 0.382 µM) | 0.016 (≈ 0.047 µM) | 0.06 (≈ 0.176 µM) | 0.016 (≈ 0.047 µM) | 0.016 (≈ 0.047 µM) | 0.004 (≈ 0.0117 µM) |  | 0.06 (≈ 0.176 µM) | 0.13 (≈ 0.382 µM) | 0.06 (≈ 0.176 µM) | 0.002 (≈ 0.00587 µM) | 0.03 (≈ 0.0881 µM) | 0.13 (≈ 0.382 µM) | 0.03 (≈ 0.0881 µM) | 0.002 (≈ 0.00587 µM) | 0.03 (≈ 0.0881 µM) |  |  |  |  | MIC (P. aeruginosa A21213; A21213, P. aeruginosa A21213): 0.13 µg/mL (≈ 0.382 µM)
5 | C[C@@H](O)[C@H]1C(=O)N2C(C(=O)[O-])=C(SCCc3cc[n+](C)cc3)C[C@H]12 [Example 2] |  |  |  |  |  |  |  | 0.03 (≈ 0.0861 µM) | 0.13 (≈ 0.373 µM) |  |  | 0.03 (≈ 0.0861 µM) | 0.13 (≈ 0.373 µM) | 0.06 (≈ 0.172 µM) |  |  |  |  |  |  | MIC ([1]; S. aureus A15097 (Meth-res.), overnight 37° C.): 8 µg/mL (≈ 23 µM); MIC (P. morganii A15153; A15153, P. morganii A15153): 0.06 µg/mL (≈ 0.172 µM); MIC ([2]; S. aureus A-9606 (Pen-res.), overnight 37° C.): 0.008 µg/mL (≈ 0.023 µM); MIC (S. aureus A-9537; A9537, S. aureus A-9537 + 50% serum, overnight 37° C.): 0.016 µg/mL; MIC (S. aureus A-9537; A9537, S. aureus A-9537, no serum, overnight 37° C.): 0.004 µg/mL (≈ 0.0115 µM); MIC (P. aeruginosa A-9843A; P. aeruginosa A-9843A): 8 µg/mL (≈ 23 µM); MIC (E. cloacae A-9659; A9659, E. cloacae A9659): 0.13 µg/mL (≈ 0.373 µM)
